From patent US20060035925A1, “SUBSTITUTED 4H-CHROMENES AND ANALOGS AS ACTIVATORS OF CASPASES AND INDUCERS OF APOPTOSIS AND THE USE THEREOF” (Cytovia, Inc., priority 1999, published 2006)
Read-outs that look alike come from different tables or passages of the source.

Key:
[1] = system: Human breast cancer cell line T-47D; assay: Caspase cascade activation assay (N-(Ac-DEVD)-N'-ethoxycarbonyl-R110 fluorogenic substrate) in T-47D cells; type: cell-based; conditions: for Caspase activity (Ratio) T-47D: 24 h incubation with compound, ratio of net RFU (T=3 h) of test compound to control
In short: (§1)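 Cells were exposed for 24 h at 37 °C to test compound at 0.016–1 μM final. Lysed with lysolecithin buffer (pH 7.2, DTT) containing 20 μM Ac-DEVD-R110 substrate, and fluorescence (ex 485/em 530 nm) read at 0 and 3 h at room temperature. EC50 from sigmoidal fit of net RFU ratio to control.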

[2] = system: Human breast cancer cell line ZR-75-1; assay: Caspase cascade activation assay (N-(Ac-DEVD)-N'-ethoxycarbonyl-R110 fluorogenic substrate) in ZR-75-1 cells; type: cell-based; conditions: for Caspase activity (Ratio) ZR-75-1: 24 h incubation with compound, ratio of net RFU (T=3 h) of test compound to control
In short: as §1

[3] = Homo sapiens, T47D, 24 h, 24 h incubation, sigmoidal dose-response, read-out: Caspase potency EC50 (nM) T-47D
[4] = Homo sapiens, ZR-75-1, 24 h, ZR-75-1 cells, 24 h incubation, sigmoidal dose-response, read-out: Caspase potency EC50 (nM) ZR-75-1

SMILES	EC50 [1, 3] [nM]	EC50 [2, 4] [nM]	EC50 ([1]; 24 h incubation, sigmoidal dose-response, read-out: Caspase potency EC50 (nM) T-47D) [nM]	EC50 ([2]; ZR-75-1 cells, 24 h incubation, sigmoidal dose-response, read-out: Caspase potency EC50 (nM) ZR-75-1) [nM]	EC50 ([1]; Homo sapiens, T47D, additional compounds, Table II, read-out: Caspase potency EC50 (nM) T-47D, Table II) [nM]	EC50 ([2]; Homo sapiens, ZR-75-1, ZR-75-1 cells, additional compounds, Table II, read-out: Caspase potency EC50 (nM) ZR-75-1, Table II) [nM]	Caspase activity (Ratio) T-47D [1]	Caspase activity (Ratio) ZR-75-1 ([2]; ZR-75-1 cells)	Caspase activity (Ratio) T-47D, Table II ([1]; additional compounds, Table II)	Caspase activity (Ratio) ZR-75-1, Table II ([2]; ZR-75-1 cells, additional compounds, Table II)
CCNc1ccc2c(c1)OC(N)=C(C#N)C2c1cccc(Br)c1 (stereo not drawn) [Example 7, 2-Amino-3-cyano-7-ethylamino-4-(3-bromophenyl)-4H-chromene]	108	53					5.4	10.7		
N#CC1=C(N)Oc2ccccc2C1c1ccccc1 (stereo not drawn) [Example 29, 2-Amino-3-cyano-4-phenyl-4-H-chromene]			> 10000	> 10000			<2	<2		
COc1cccc(C2C(C#N)=C(N)Oc3cc(OC)ccc32)c1 (stereo not drawn) [Example 4, 2-Amino-3-cyano-7-methoxy-4-(3-methoxyphenyl)-4H-chromene]	37	33					8.1	5.6		
CCNc1ccc2c(c1)OC(N)=C(C#N)C2c1cccc(OC)c1 (stereo not drawn) [Example 15, 2-Amino-3-cyano-7-ethylamino-4-(3-methoxyphenyl)-4H-chromene]	7	4					5.9	6.3		
N#CC1=C(N)Oc2cc(N)ccc2C1c1cccnc1 (stereo not drawn) [Example 24, 2,7-Diamino-3-cyano-4-(3-pyridyl)-4H-chromene]	> 10000	> 10000					<2	<2		
COc1cc(C2C(C#N)=C(N)Oc3cc(O)ccc32)cc(OC)c1OC (stereo not drawn) [2-Amino-3-cyano-7-hydroxy-4-(3,4,5-trimethoxyphenyl)-4H-chromene]					456	208			7.3	10.3

Now from value to molecule, other results behind:

EC50 [1, 3] [nM]	EC50 [2, 4] [nM]	EC50 ([1]; 24 h incubation, sigmoidal dose-response, read-out: Caspase potency EC50 (nM) T-47D) [nM]	EC50 ([2]; ZR-75-1 cells, 24 h incubation, sigmoidal dose-response, read-out: Caspase potency EC50 (nM) ZR-75-1) [nM]	EC50 ([1]; Homo sapiens, T47D, additional compounds, Table II, read-out: Caspase potency EC50 (nM) T-47D, Table II) [nM]	EC50 ([2]; Homo sapiens, ZR-75-1, ZR-75-1 cells, additional compounds, Table II, read-out: Caspase potency EC50 (nM) ZR-75-1, Table II) [nM]	SMILES	Caspase activity (Ratio) T-47D [1]	Caspase activity (Ratio) ZR-75-1 ([2]; ZR-75-1 cells)	Caspase activity (Ratio) T-47D, Table II ([1]; additional compounds, Table II)	Caspase activity (Ratio) ZR-75-1, Table II ([2]; ZR-75-1 cells, additional compounds, Table II)
57	47					COc1ccc2c(c1)OC(N)=C(C#N)C2c1cccc(F)c1 (stereo not drawn) [Example 2N, 2-Amino-3-cyano-7-methoxy-4-(3-fluorophenyl)-4H-chromene]	4.2	6.8		
56	25					N#CC1=C(N)OC2C3=CC=NC3=CC=C2C1c1cccc(Cl)c1 (stereo not drawn) [Example 2G, 2-Amino-3-cyano-4-(3-chlorophenyl)-4H-indolo[4,5-b]pyran]	5.6	4.5		
> 10000	> 10000					N#CC1=C(N)Oc2cc(O)ccc2C1c1cccc(C#N)c1 (stereo not drawn) [Example 2B, 2-Amino-3-cyano-7-hydroxy-4-(3-cyanophenyl)-4H-chromene]	1.2	1.9		
